This note sets out measurements from US20250222116A1, “PARP-1 DEGRADATION AGENT AND USE THEREOF” (XIZANG HAISCO PHARMACEUTICAL CO., LTD., priority 2021, published 2025).

The test system of experiment [1] is breast tumor cells MDA-MB-436. As to the kind of experiment: MDA-MB-436 cell activity test (CellTiter-Glo, 7 days). As to conditions: for IC50: 7 days incubation, read-out: IC50 (nM), MDA-MB-436 cell inhibitory activity; for inhibition at 10 µM: MDA-MB-436, MDA-MB-436 cells, read-out: Max inh. % 10 μM. It counts as cell-based, human. As for the experimental part: Breast tumor cells MDA-MB-436 were purchased from ATCC, the culture medium was Leibovitz's L-15+10% FBS, and the cells were cultured in a CO2-free incubator at 37° C. On day 1, the cells in the exponential growth phase were collected, and the cell suspension was adjusted to 4000 cells/135 μL with the culture medium. 135 μL of the cell suspension was added to each well of a 96-well cell culture plate and incubated overnight. On day 2, compounds at different concentrations were added, and the plate was placed in the incubator and incubated for 7 days. After the culture was completed, according to operation instructions for a CellTiter-Glo kit (Promega, G7573), 75 μL of CTG solution, which was already pre-melted and equilibrated to room temperature, was added to each well, and the mixture was uniformly mixed for 2 minutes using a microplate shaker. The plate was placed at room temperature for 10 minutes, and then […] signal values were determined using an Envision2104 plate reader (PerkinElmer). The inhibition rate was calculated using formula (1), where RLUcompound was the readout of the drug treated group, RLUcontrol was the average value of the solvent control group, and RLUblank was the average value of the cell-free well. The IC50 value was calculated using GraphPad Prism software.
Background: In ATP-based viability assays light output follows the ATP content of the culture.

A further experiment has as its target PARP1 (Homo sapiens (Human), UniProt P09874). As to the kind of experiment: PARP1 protein expression level in MDA-MB-436 cells. The class given is cell-based. The conditions noted are these: 100 nM, 24 hours. As for the experimental part:
(§1) MDA-MB-436 cells were placed in a complete DMEM medium (supplemented with 15% FBS; 10 μg/mL Insulin; 16 μg/mL Glutathione and 1% penicillin-streptomycin solution), and cultured at 37° C. under CO2-free conditions. The cells in the logarithmic growth phase were collected, the cell density was adjusted to 2×10^5 cells/well with the culture medium, and the cells were added to a 6-well cell culture plate at a volume of 1 mL/well. The compound to be tested was prepared to 2-fold the final concentration, 1 mL of the compounds at different concentrations were added to administration wells, a medium containing 0.2% DMSO was added to control wells, and the plate was incubated for 24 hours at 37° C. The cells were collected into a 1.5 mL centrifuge tube, 25 μL of RIPA lysis buffer (containing 1× protease inhibitor cocktail) was added, and the cells were lysed on ice for 15 minutes and centrifuged at 12000 rpm/min at 4° C. for 10 minutes. The supernatant was collected and the protein content was determined using the BCA method. The protein sample to be tested was diluted to 0.8 mg/mL, PARP1 was detected using a fully automated protein expression quantitative analyzer (ProteinSimple), and the internal reference protein was 3-actin (both antibodies were from CST). The software (Compass for SW) of the fully automated protein expression quantitative analyzer was used to process the raw data and calculate the peak area and the PARP1 expression rate relative to the control group.
as §1, with “L-15” for “DMEM”, “mL/well and cultured overnight. On day 2, the” for “mL/well. The”, “group. DC50 values were calculated using a four-parameter non-linear fitting model in Graphpad 8.3.0 software.” for “group.”

The mark [2] stands for this setting: Homo sapiens, MDA-MB-436, 168 h, MDA-MB-436 cells.

Where two headings read alike, the source gives them in different places.

Sequence of PARP1 (P09874 whole entry): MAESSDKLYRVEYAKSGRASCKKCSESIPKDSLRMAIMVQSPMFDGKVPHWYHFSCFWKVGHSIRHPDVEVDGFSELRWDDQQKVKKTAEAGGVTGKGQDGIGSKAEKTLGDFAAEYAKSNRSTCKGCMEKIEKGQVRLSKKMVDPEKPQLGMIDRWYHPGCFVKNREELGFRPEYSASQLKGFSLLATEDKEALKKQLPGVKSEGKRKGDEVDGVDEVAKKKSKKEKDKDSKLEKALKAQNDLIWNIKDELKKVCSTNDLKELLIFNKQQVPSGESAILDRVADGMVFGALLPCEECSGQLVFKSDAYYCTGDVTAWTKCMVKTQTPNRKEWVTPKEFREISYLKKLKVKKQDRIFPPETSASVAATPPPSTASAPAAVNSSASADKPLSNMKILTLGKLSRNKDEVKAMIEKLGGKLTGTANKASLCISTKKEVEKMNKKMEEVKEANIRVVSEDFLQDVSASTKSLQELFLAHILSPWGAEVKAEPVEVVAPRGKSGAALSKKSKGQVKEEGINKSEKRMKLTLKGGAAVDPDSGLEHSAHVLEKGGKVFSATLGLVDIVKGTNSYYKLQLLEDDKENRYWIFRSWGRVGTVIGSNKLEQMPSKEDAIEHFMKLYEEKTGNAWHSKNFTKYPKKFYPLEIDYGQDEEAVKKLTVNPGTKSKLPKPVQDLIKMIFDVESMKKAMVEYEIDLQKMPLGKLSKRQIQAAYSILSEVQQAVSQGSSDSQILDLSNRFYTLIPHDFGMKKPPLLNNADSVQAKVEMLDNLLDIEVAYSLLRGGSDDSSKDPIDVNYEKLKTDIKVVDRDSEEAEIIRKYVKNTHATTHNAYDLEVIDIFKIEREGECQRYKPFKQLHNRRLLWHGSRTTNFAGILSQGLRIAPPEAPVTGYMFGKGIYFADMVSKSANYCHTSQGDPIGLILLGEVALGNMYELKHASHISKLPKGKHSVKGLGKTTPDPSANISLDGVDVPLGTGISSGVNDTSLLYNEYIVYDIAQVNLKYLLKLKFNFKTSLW

The IC50 is the concentration at which inhibition is half-maximal. Consider `CCc1cc2ncc(CN3CCN(c4ccc(C(=O)Nc5cnn(C6CCN(c7ccc8c(c7)C(=O)N(C7CCC(=O)NC7=O)C8=O)CC6)c5)nc4)CC3)cc2[nH]c1=O` (stereo not drawn) [Compound 57, N-(1-(1-(2-(2,6-dioxopiperidin-3-yl)-1,3-dioxoisoindolin-5-yl)piperidin-4-yl)-1H-pyrazol-4-yl)-5-(4-((7-ethyl-6-oxo-5,6-dihydro-1,5-naphthyridin-3-yl)methyl)piperazin-1-yl)picolinamide], for which the IC50 in experiment [1] (setting [2]) was determined as 15.8 nM. For the same compound, the inhibition at 10 µM in experiment [1] (Homo sapiens, 10 μM) was 84%. In addition, the “PARP1 degradation rate @ 100 nM” value at PARP1 turned out to be 80.6%.

As for `CCc1cc2ncc(CN3CCN(c4ccc(C(=O)N[C@H]5C[C@H](Oc6ccc7c(c6)C(=O)N(C6CCC(=O)NC6=O)C7=O)C5)nc4)CC3)cc2[nH]c1=O` (stereo partly drawn) [Compound 59, N-((1r,3r)-3-((2-(2,6-dioxopiperidin-3-yl)-1,3-dioxoisoindolin-5-yl)oxy)cyclobutyl)-5-(4-((7-ethyl-6-oxo-5,6-dihydro-1,5-naphthyridin-3-yl)methyl)piperazin-1-yl)picolinamide], the IC50 in experiment [1] (setting [2]) came to 38 nM. In experiment [1] (Homo sapiens, 10 μM), the inhibition at 10 µM was 81.7%.

For `CCc1cc2ncc(CN3CCN(c4ccc(C(=O)NC5CCN(c6cccc7c6C(=O)N(C6CCC(=O)NC6=O)C7=O)CC5)nc4)CC3)cc2[nH]c1=O` (stereo not drawn) [Compound 19, N-(1-(2-(2,6-dioxopiperidin-3-yl)-1,3-dioxoisoindolin-4-yl)piperidin-4-yl)-5-(4-((7-ethyl-6-oxo-5,6-dihydro-1,5-naphthyridin-3-yl)methyl)piperazin-1-yl)picolinamide], in experiment [1] (setting [2]), the IC50 came out at 21 nM. Moreover, the inhibition at 10 µM in experiment [1] (Homo sapiens, 10 μM) was 90.3%.

For `CCc1cc2ncc(CN3CC=C(c4ccc(C(=O)NC5CCN(c6ccc7c(c6)C(=O)N(C6CCC(=O)NC6=O)C7=O)CC5)nc4)CC3)cc2[nH]c1=O` (stereo not drawn) [Compound 49, N-(1-(2-(2,6-dioxopiperidin-3-yl)-1,3-dioxoisoindolin-5-yl)piperidin-4-yl)-1′-((7-ethyl-6-oxo-5,6-dihydro-1,5-naphthyridin-3-yl)methyl)-1′,2′,3′,6′-tetrahydro-[3,4′-bipyridine]-6-carboxamide], the IC50 in experiment [1] (setting [2]) is 101 nM. Further, the inhibition at 10 µM in experiment [1] (Homo sapiens, 10 μM) was 93.8%.

`CCc1cc2ncc(CN3CCN(c4ccc(C(=O)NC5CCC(Oc6ccc7c(c6)C(=O)N(C6CCC(=O)NC6=O)C7=O)CC5)nc4)CC3)cc2[nH]c1=O` (stereo not drawn) [Compound 67, N-((1s,4s)-4-((2-(2,6-dioxopiperidin-3-yl)-1,3-dioxoisoindolin-5-yl)oxy)cyclohexyl)-5-(4-((7-ethyl-6-oxo-5,6-dihydro-1,5-naphthyridin-3-yl)methyl)piperazin-1-yl)picolinamide]: in experiment [1] (MDA-MB-436 cells, 10 μM), the “Max inh. % 10 μM” value is recorded as 96.2%. In addition, the IC50 in experiment [1] (MDA-MB-436 cells) is 100 nM.

As to `CCc1cc2ncc(CN3CCN(c4ccc(C(=O)NC5CCN(C(=O)CC67CC8C[C@H](C6)C[C@H](C8)C7)CC5)nc4)CC3)cc2[nH]c1=O` [Compound 12, N-(1-(2-((3R,5R)-adamantan-1-yl)acetyl)piperidin-4-yl)-5-(4-((7-ethyl-6-oxo-5,6-dihydro-1,5-naphthyridin-3-yl)methyl)piperazin-1-yl)picolinamide], in experiment [1] (setting [2]), the IC50 is 44 nM. In experiment [1] (Homo sapiens, 10 μM), the inhibition at 10 µM was 89.6%.

Regarding `CCc1cc2ncc(CN3CCN(c4ccc(C(=O)N[C@H]5CCN(c6ccc7c(c6)C(=O)N(C6CCC(=O)NC6=O)C7=O)C5)nc4)CC3)cc2[nH]c1=O` (stereo partly drawn) [Compound 21, N-((3S)-1-(2-(2,6-dioxopiperidin-3-yl)-1,3-dioxoisoindolin-5-yl)pyrrolidin-3-yl)-5-(4-((7-ethyl-6-oxo-5,6-dihydro-1,5-naphthyridin-3-yl)methyl)piperazin-1-yl)picolinamide], the IC50 in experiment [1] (setting [2]) is 25 nM. Also, in experiment [1] (Homo sapiens, 10 μM), the inhibition at 10 µM was determined as 88.9%.

In the case of `CCc1cc2ncc(CN3CCN(c4ccc(C(=O)NC5CCN(C6CN(c7cc8c(cc7F)C(=O)N(C7CCC(=O)NC7=O)C8=O)C6)CC5)nc4)CC3)cc2[nH]c1=O` (stereo not drawn) [Compound 26, N-(1-(1-(2-(2,6-dioxopiperidin-3-yl)-6-fluoro-1,3-dioxoisoindolin-5-yl)azetidin-3-yl)piperidin-4-yl)-5-(4-((7-ethyl-6-oxo-5,6-dihydro-1,5-naphthyridin-3-yl)methyl)piperazin-1-yl)picolinamide], the IC50 in experiment [1] (setting [2]) came out at 53 nM. Also, the inhibition at 10 µM in experiment [1] (Homo sapiens, 10 μM) was found to be 81.7%. Further, the “PARP1 degradation rate @ 100 nM” value on PARP1 is reported as 83.5%.

In the case of `CCc1cc2ncc(CN3CCN(c4ccc(C(=O)NC5CCN(c6ncc(N7CCC(=O)NC7=O)cn6)CC5)nc4)CC3)cc2[nH]c1=O` [Compound 69, N-(1-(5-(2,4-dioxotetrahydropyrimidin-1(2H)-yl)pyrimidin-2-yl)piperidin-4-yl)-5-(4-((7-ethyl-6-oxo-5,6-dihydro-1,5-naphthyridin-3-yl)methyl)piperazin-1-yl)picolinamide], in experiment [1] (setting [2]), the IC50 was 15.3 nM. Besides, in experiment [1] (Homo sapiens, 10 μM), the inhibition at 10 µM amounted to 88.4%.

Regarding `CCc1cc2ncc(CN3CCN(c4ccc(C(=O)NC5CN(c6cc7c(cc6F)C(=O)N(C6CCC(=O)NC6=O)C7=O)C5)nc4)CC3)cc2[nH]c1=O` (stereo not drawn) [Compound 17, N-(1-(2-(2,6-dioxopiperidin-3-yl)-6-fluoro-1,3-dioxoisoindolin-5-yl)azetidin-3-yl)-5-(4-((7-ethyl-6-oxo-5,6-dihydro-1,5-naphthyridin-3-yl)methyl)piperazin-1-yl)picolinamide], the IC50 in experiment [1] (setting [2]) worked out at 61 nM. The inhibition at 10 µM in experiment [1] (Homo sapiens, 10 μM) is 99%.

Turning to `CCc1cc2ncc(CN3CCN(c4ccc(C(=O)N[C@H]5C[C@H](Nc6ccc7c(c6)C(=O)N(C6CCC(=O)NC6=O)C7=O)C5)nc4)CC3)cc2[nH]c1=O` (stereo partly drawn) [Compound 38, N-((1r,3r)-3-((2-(2,6-dioxopiperidin-3-yl)-1,3-dioxoisoindolin-5-yl)amino)cyclobutyl)-5-(4-((7-ethyl-6-oxo-5,6-dihydro-1,5-naphthyridin-3-yl)methyl)piperazin-1-yl)picolinamide], the IC50 in experiment [1] (setting [2]) stood at 12 nM. For the same compound, the inhibition at 10 µM in experiment [1] (Homo sapiens, 10 μM) worked out at 77.1%.

On to `CCc1cc2ncc(CN3CCN(c4ccc(C(=O)NC5CCN(CC6CCN(Cc7ccc(-n8c(O)nnc8-c8cc(C(C)C)c(O)cc8O)cc7)CC6)CC5)nc4)CC3)cc2[nH]c1=O` [Compound 8, N-(1-((1-(4-(3-(2,4-dihydroxy-5-isopropylphenyl)-5-hydroxy-4H-1,2,4-triazol-4-yl)benzyl)piperidin-4-yl)methyl)piperidin-4-yl)-5-(4-((7-ethyl-6-oxo-5,6-dihydro-1,5-naphthyridin-3-yl)methyl)piperazin-1-yl)picolinamide], for which the IC50 in experiment [1] (setting [2]) turned out to be 15 nM. The inhibition at 10 µM in experiment [1] (Homo sapiens, 10 μM) turned out to be 99.8%.

Take `CCc1cc2ncc(CN3CCN(c4ccc(C(=O)NC5CCN(c6ccc7c(c6)CN(C6CCC(=O)NC6=O)C7=O)CC5)nc4)CC3)cc2[nH]c1=O` (stereo not drawn) [Compound 31, N-(1-(2-(2,6-dioxopiperidin-3-yl)-1-oxoisoindolin-5-yl)piperidin-4-yl)-5-(4-((7-ethyl-6-oxo-5,6-dihydro-1,5-naphthyridin-3-yl)methyl)piperazin-1-yl)picolinamide]: the “PARP1 degradation rate @ 100 nM” value at PARP1 was found to be 92.1%.
